Results taken from patent US8680052B1, “Methods of treating, reducing the incidence of, and/or preventing ischemic events” (The Medicines Company, priority 2013, dated 2014).
Read-outs that look alike come from different tables or passages of the source.

Test system: patients with acute coronary syndromes undergoing PCI
Conditions: 30 days; for All-cause mortality OR (95% CI) / IDR OR (95% CI) / MI OR (95% CI) / Mortality/MI/IDR OR (95% CI) / Mortality/Q-wave MI/IDR OR (95% CI) / Mortality/Q-wave MI/Stent thrombosis OR (95% CI) / Stent thrombosis OR (95% CI) / Q-wave MI OR (95% CI): Cangrelor vs Clopidogrel
Experimental: Patients were eligible for enrollment if they had stable angina, unstable angina, or non-ST-segment elevation (NSTE) MI with obstructive coronary artery disease and were scheduled to undergo PCI.
The infusion began within 30 minutes prior to PCI and continued for at least 2 hours or until the conclusion of the index procedure, whichever was longer. At the treating physician's discretion, the infusion could be continued for 4 hours.
All patients received aspirin 75-325 mg per local site standards. Adjunctive anticoagulants (unfractionated heparin, low molecular weight heparin, bivalirudin, or fondaparinux) and the procedural use of glycoprotein IIb/IIIa inhibitors were determined by the treating physician.
The primary efficacy endpoint was the 48-hour composite of all-cause mortality, MI, or ischemia-driven revascularization. Prespecified secondary efficacy endpoints included the composite of mortality or MI at 48 hours and 30 days; the composite of mortality, MI, or ischemia-driven revascularization at 30 days; the components of the composite endpoints at 48 hours and 30 days; stroke at 48 hours; abrupt closure, threatened abrupt closure, need for urgent coronary artery bypass grafting, or unsuccessful procedure during the index PCI; acute (24 hours) and 48 hours stent thrombosis; and all-cause mortality at 6 months and 1 year.
Rates of MI and ischemia-driven revascularization up to 30 days following the index procedure were assessed. Ischemia-driven revascularization was defined as symptoms of myocardial ischemia leading to urgent (within 24 hours of the last episode of ischemia) revascularization, which must have occurred after the index procedure concluded (i.e., guidewire removal). New electrocardiographic changes, acute pulmonary edema, ventricular arrhythmias, or hemodynamic instability could also constitute evidence of ischemia.
MI was defined by a new Q wave (duration >0.03 seconds) in two contiguous electrocardiographic leads or elevations in creatine kinase (CK) and CK-MB, including a rise of CK-MB≧3 times the local upper limit or normal and, when biomarkers were elevated prior to PCI, an additional 50% above baseline. One baseline troponin measurement was required for patients undergoing urgent PCI. Measurements of CK-MB were obtained at 2, 10, 17, and 24 hours post-PCI.
The primary efficacy analysis was to be determined in the modified intent-to-treat (mITT) population, defined as all randomized patients (excluding STEMI cohort) who received at least one dose of study drug and underwent the index PCI. The safety population consisted of all randomized patients who received any study drug. Patients in the safety analyses were assigned to a treatment arm based on treatment received, not as randomized.

## CSCCNc1nc(SCCC(F)(F)F)nc2c1ncn2[C@@H]1O[C@H](COP(=O)(O)OP(=O)(O)C(Cl)(Cl)P(=O)(O)O)[C@@H](O)[C@H]1O [Cangrelor, cangrelor]
ITT
  Stent thrombosis: 27 (0.6) no. (%)
  All-cause mortality OR (95% CI): 0.852 (0.558, 1.301)
  IDR OR (95% CI): 0.899 (0.637, 1.271)
  MI OR (95% CI): 1.095 (0.929, 1.291)
  Mortality/MI/IDR OR (95% CI): 1.026 (0.884, 1.192)
  Mortality/Q-wave MI/IDR OR (95% CI): 0.856 (0.655, 1.119)
  Mortality/Q-wave MI/Stent thrombosis OR (95% CI): 0.829 (0.599, 1.146)
  Q-wave MI OR (95% CI): 0.601 (0.263, 1.374)
  Stent thrombosis OR (95% CI): 0.902 (0.535, 1.519)
ITT With STEMI
  All-cause mortality: 8 (1.7) no. (%)
  IDR: 16 (3.4) no. (%)
  MI: 20 (4.2) no. (%)
  Mortality/MI/IDR: 36 (7.6) no. (%)
  Mortality/Q-wave MI/IDR: 23 (4.9) no. (%)
  Mortality/Q-wave MI/Stent thrombosis: 14 (3.0) no. (%)
  Q-wave MI: 2 (0.4) no. (%)
  Stent thrombosis: 7 (1.5) no. (%)
  All-cause mortality OR (95% CI): 0.524 (0.222, 1.235)
  IDR OR (95% CI): 1.139 (0.557, 2.331)
  MI OR (95% CI): 1.263 (0.653, 2.441)
  Mortality/MI/IDR OR (95% CI): 0.929 (0.582, 1.480)
  Mortality/Q-wave MI/IDR OR (95% CI): 0.778 (0.447, 1.355)
  Mortality/Q-wave MI/Stent thrombosis OR (95% CI): 0.560 (0.289, 1.085)
  Stent thrombosis OR (95% CI): 0.741 (0.280, 1.962)
ITT Without STEMI
  All-cause mortality: 32 (0.8) no. (%)
  IDR: 46 (1.2) no. (%)
  MI: 298 (7.6) no. (%)
  Mortality/MI/IDR: 345 (8.8) no. (%)
  Mortality/Q-wave MI/IDR: 79 (2.0) no. (%)
  Mortality/Q-wave MI/Stent thrombosis: 54 (1.4) no. (%)
  Q-wave MI: 7 (0.2) no. (%)
  Stent thrombosis: 20 (0.5) no. (%)
  All-cause mortality OR (95% CI): 1.027 (0.626, 1.687)
  IDR OR (95% CI): 0.846 (0.569, 1.257)
  MI OR (95% CI): 1.081 (0.912, 1.281)
  Mortality/MI/IDR OR (95% CI): 1.037 (0.886, 1.215)
  Mortality/Q-wave MI/IDR OR (95% CI): 0.891 (0.656, 1.211)
  Mortality/Q-wave MI/Stent thrombosis OR (95% CI): 0.959 (0.658, 1.397)
  Q-wave MI OR (95% CI): 0.463 (0.189, 1.138)
  Stent thrombosis OR (95% CI): 0.995 (0.535, 1.852)
MITT
  All-cause mortality: 40 (0.9) no. (%)
  IDR: 60 (1.4) no. (%)
  MI: 315 (7.3) no. (%)
  Mortality/MI/IDR: 376 (8.7) no. (%)
  Mortality/Q-wave MI/IDR: 100 (2.3) no. (%)
  Mortality/Q-wave MI/Stent thrombosis: 68 (1.6) no. (%)
  Q-wave MI: 9 (0.2) no. (%)
  Stent thrombosis: 27 (0.6) no. (%)
MITT With STEMI
  All-cause mortality: 8 (1.8) no. (%)
  IDR: 16 (3.7) no. (%)
  MI: 18 (4.1) no. (%)
  Mortality/MI/IDR: 34 (7.8) no. (%)
  Mortality/Q-wave MI/IDR: 23 (5.3) no. (%)
  Mortality/Q-wave MI/Stent thrombosis: 14 (3.2) no. (%)
  Q-wave MI: 2 (0.5) no. (%)
  Stent thrombosis: 7 (1.6) no. (%)
  All-cause mortality OR (95% CI): 0.732 (0.292, 1.838)
  IDR OR (95% CI): 1.165 (0.561, 2.416)
  MI OR (95% CI): 1.146 (0.577, 2.278)
  Mortality/MI/IDR OR (95% CI): 1.015 (0.619, 1.665)
  Mortality/Q-wave MI/IDR OR (95% CI): 0.929 (0.519, 1.663)
  Mortality/Q-wave MI/Stent thrombosis OR (95% CI): 0.665 (0.334, 1.325)
  Stent thrombosis OR (95% CI): 0.705 (0.266, 1.869)
MITT Without STEMI
  All-cause mortality: 32 (0.8) no. (%)
  IDR: 44 (1.1) no. (%)
  MI: 297 (7.7) no. (%)
  Mortality/MI/IDR: 342 (8.9) no. (%)
  Mortality/Q-wave MI/IDR: 77 (2.0) no. (%)
  Mortality/Q-wave MI/Stent thrombosis: 54 (1.4) no. (%)
